In patent US6403561B1, “Tripeptidylpeptidase inhibitors” (Institut National de la Sante et de la Recherche Medicale …, priority 1998, dated 2002):
pKi: −log10 of the molar value. Where a name gives a salt, the structure may show the parent alone. Where a SMILES comes first, the peptide text is derived from it. [ ]: non-standard residue; d: D form. The star is where a group is joined. Oic = O=C(O)[C@@H]1C[C@@H]2CCCC[C@@H]2N1; Abu = CC[C@H](N)C(=O)O; NHBu = CCCCN*; NHPr = CCCN*

Tests used:
endogenous CCK-8 = test: Protection of endogenous CCK-8 released from slices of depolarized rat cerebral cortex (radioimmunoassay); type: cell-based; settings: concentration of 1 μM
Experimental: At a concentration of 1 μM, it multiplies the recovery of released CCK-8 4-fold (measured by radioimmunoassay).

[1] = biological target: membrane-bound tripeptidylpeptidase II (Rattus norvegicus, UniProt Q64560); test: Measurement of the activity of membrane-bound tripeptidylpeptidase (release of Amc from A-AP-Amc, fluorimetry); settings: apparent dissociation constant calculated from the 50% inhibitory concentration and the KM of the substrate (23 μM), rat brain membranes, 50 μM A-AP-Amc
Experimental: Membranes from rat brain were obtained by centrifugation (200,000×g min) of a homogenate prepared in 10 volumes of 50 mM potassium phosphate buffer, pH 7.4.
After washing thoroughly, the centrifugation pellet is taken up in the buffer containing 10% glycerol and 0.1% Brij 35 in order to obtain a concentration of 25 mg of proteins/ml.
The release of Amc is evaluated by fluorimetry.

[2] = Anorexigenic (pro-satiety) activity: spontaneous taking of solid food; type: in vivo; settings: mice, 10 mg/kg intravenously, 30 to 90 minutes after free access to food, after overnight fasting
Experimental: In mice, at a dose of 10 mg/kg (intravenously), this compound decreases the spontaneous taking of solid food (“UAR” tablet) by 45%, measured over a period of 30 to 90 minutes after free access to this food (period preceded by fasting overnight and oral administration of 0.2 ml of a semi-liquid meal).

liver TPP II = biological target: T1, liver TPP II (Mus musculus, UniProt Q64514); test: Inhibitory activity of TPP II ex vivo after administration to a rodent; type: in vivo; settings: mice, 90 minutes after oral administration of 10 mg/kg
T1 construct: measuring the residual catalytic activity on membranes from brain or from a peripheral organ; from tissue; host or cells: mouse liver (membranes), ex vivo after oral dosing
Experimental: This test is completed by an evaluation of the inhibitory activity of TPP II “ex vivo”, which consists in administering a compound according to the invention to a rodent and in measuring the residual catalytic activity on membranes from brain or from a peripheral organ.
For example, the activity of liver TPP II measured in mice 90 minutes after oral administration of 10 mg/kg of the compound of Example 9 is about 90-100% inhibited.

membrane-bound tripeptidylpeptidase II, sequence (Q64560 whole entry): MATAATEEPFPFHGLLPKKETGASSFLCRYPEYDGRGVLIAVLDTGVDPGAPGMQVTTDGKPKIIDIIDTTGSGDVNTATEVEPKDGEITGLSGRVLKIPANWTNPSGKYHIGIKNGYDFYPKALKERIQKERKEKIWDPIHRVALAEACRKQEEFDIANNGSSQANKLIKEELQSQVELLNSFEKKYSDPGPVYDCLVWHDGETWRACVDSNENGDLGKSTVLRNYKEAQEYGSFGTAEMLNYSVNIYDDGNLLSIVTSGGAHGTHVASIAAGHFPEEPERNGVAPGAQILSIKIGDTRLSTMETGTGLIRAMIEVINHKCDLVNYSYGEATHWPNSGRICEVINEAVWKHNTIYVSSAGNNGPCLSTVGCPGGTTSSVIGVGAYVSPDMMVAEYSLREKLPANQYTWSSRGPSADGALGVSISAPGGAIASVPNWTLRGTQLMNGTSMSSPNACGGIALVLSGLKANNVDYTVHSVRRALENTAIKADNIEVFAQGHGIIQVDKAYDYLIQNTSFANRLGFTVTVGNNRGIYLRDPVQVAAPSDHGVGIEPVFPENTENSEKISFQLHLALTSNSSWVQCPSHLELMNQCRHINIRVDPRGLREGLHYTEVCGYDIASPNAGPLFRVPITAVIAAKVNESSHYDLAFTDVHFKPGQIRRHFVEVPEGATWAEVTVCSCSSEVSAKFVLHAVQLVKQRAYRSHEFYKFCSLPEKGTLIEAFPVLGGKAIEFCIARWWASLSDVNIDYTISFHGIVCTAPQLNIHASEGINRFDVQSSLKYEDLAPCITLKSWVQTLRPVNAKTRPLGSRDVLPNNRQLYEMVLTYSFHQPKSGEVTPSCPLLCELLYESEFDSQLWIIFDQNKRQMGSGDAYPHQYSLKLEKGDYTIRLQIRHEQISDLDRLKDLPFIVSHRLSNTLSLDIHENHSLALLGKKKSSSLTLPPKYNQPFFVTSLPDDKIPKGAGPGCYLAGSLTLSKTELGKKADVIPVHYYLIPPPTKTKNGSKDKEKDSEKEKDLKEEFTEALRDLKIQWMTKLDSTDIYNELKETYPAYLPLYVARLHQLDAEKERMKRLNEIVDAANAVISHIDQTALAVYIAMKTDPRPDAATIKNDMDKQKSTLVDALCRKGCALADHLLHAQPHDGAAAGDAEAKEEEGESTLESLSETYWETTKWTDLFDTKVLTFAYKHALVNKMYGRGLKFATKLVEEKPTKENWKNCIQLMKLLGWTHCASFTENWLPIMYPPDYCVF
T1 sequence (Q64514 whole entry): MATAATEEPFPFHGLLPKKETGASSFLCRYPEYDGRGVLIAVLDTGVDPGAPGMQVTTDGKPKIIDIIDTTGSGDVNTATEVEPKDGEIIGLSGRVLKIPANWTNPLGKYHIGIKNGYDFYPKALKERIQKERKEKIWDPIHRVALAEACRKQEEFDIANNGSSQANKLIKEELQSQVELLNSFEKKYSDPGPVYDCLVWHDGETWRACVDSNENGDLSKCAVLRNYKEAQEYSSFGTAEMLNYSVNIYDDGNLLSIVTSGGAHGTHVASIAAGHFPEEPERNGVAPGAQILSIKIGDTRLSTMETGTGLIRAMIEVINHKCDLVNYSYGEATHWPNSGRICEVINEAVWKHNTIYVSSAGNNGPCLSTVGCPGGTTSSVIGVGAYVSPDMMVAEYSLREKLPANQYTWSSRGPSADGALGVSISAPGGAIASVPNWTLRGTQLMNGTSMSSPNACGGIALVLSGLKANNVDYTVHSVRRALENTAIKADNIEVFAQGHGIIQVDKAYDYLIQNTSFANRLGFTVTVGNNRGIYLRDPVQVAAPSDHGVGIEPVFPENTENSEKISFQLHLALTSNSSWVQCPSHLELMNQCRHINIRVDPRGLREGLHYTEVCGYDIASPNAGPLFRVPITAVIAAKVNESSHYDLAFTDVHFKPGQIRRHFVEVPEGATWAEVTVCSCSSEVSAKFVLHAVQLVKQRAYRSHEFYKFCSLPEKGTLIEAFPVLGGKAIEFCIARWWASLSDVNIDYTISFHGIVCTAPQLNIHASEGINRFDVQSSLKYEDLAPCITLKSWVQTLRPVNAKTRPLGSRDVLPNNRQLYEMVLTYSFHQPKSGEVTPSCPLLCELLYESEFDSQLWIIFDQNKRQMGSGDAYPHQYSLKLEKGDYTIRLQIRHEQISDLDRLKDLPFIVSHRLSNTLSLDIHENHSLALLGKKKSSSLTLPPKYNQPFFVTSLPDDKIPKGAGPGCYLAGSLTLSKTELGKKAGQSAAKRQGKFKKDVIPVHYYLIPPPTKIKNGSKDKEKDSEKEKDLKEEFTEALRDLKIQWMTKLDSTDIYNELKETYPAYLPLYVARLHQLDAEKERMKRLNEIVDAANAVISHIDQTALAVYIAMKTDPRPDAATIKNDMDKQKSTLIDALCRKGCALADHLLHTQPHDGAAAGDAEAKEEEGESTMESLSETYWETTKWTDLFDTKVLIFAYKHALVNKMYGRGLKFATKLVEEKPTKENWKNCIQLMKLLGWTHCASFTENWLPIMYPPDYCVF

Row | SMILES | melting point [°C] | further results
1 | CCCCNC(=O)[C@@H]1C[C@@H]2CCCC[C@@H]2N1C(=O)[C@@H](N)CC [Example 22, 1-(2(S)-aminobutyryl)-2(S)-[(3aS,7aS)-perhydro]indolinecarboxylic Acid N-butylamide] (H-[Abu]-[Oic]-NHBu) |  | recovery of released CCK-8 (endogenous CCK-8): 4 fold; pKi ([1]; Ki): 6.25; decrease of the spontaneous taking of solid food [2]: 45%
2 | CCCCNC(=O)[C@@H]1Cc2c(OCC)cccc2N1C(=O)[C@@H](N)CC.O=C(O)C(=O)O [Example 31, 1-(2(S)-aminobutyryl)-4-ethoxyindoline-2(S)-carboxylic Acid Butylamide Oxalate] | 144.7 to 146.2 | pKi ([1]; Ki): 7.54
3 | CC(C)[C@H](NC(=O)[C@@H]1CCCN1C(=O)[C@H](C)N)B1OC2CC3CC(C3(C)C)C2(C)O1 (stereo partly drawn) [Example 9, L-alanyl-L-prolyl-L-borovaline pinanediol ester] |  | pKi [1]: 9.52; inhibition of the activity of liver TPP II (liver TPP II): 90-100%
4 | CCCCNC(=O)C1Cc2cc(OC)ccc2N1C(=O)[C@H](C)N.O=C(O)C(=O)O (mixture of isomers) [Example 25, 1-(L-alanyl)-5-methoxyindoline-2(R/S)-carboxylic Acid Butylamide Oxalate] | 112 to 118 | 
5 | CC[C@H](C)CNC(=O)[C@@H]1CCCN1C(=O)[C@@H](N)CC (as salt: oxalate) [Example 5, 1-(2(S)-aminobutyryl)-L-proline [2(S)methyl]butylamide] | 135 to 136 | 
6 | CCCCNC(=O)C1Cc2c(ccc(OC)c2OC)N1C(=O)[C@@H](N)CC.O=C(O)C(=O)O (mixture of isomers) [Example 32, 1-(2(S)-aminobutyryl)-4,5-dimethoxyindoline-2(R/S)-carboxylic Acid Butylamide Oxalate] | 196.1 to 197.5 | 
7 | CCCNC(=O)[C@@H]1CCCN1C(=O)[C@@H](N)CC (as salt: trifluoroacetate) [Example 6, 1-(2(S)-amino-butyryl)-L-proline n-propylamide] (H-[Abu]-Pro-NHPr) | 46 to 51 | 
8 | CCCCNC(=O)[C@@H]1Cc2cc(OC)ccc2N1C(=O)[C@H](C)N.O=C(O)C(=O)O [Example 26, 1-(L-alanyl)-5-methoxyindoline-2(S)-carboxylic Butylamide Oxalate] | 141 to 143 | pKi ([1]; Ki): 8.12
9 | CCCCNC(=O)[C@@H]1CCCN1C(=O)[C@@H](N)CC (as salt: oxalate) [Example 4, 1-(2(S)-amino-butyryl)-L-proline n-butylamide] (H-[Abu]-Pro-NHBu) | 165 to 167 | 

Second part, led by results:

Row | melting point [°C] | SMILES | further results
10 | 130 to 131 | CCCNC(=O)[C@@H]1Cc2ccccc2N1C(=O)[C@@H](N)CC (as salt: oxalate) (hydrate or solvate) | 
11 | 105 to 110 | CCCCNC(=O)C1Cc2cc(F)ccc2N1C(=O)[C@@H](N)CC (mixture of isomers) (as salt: oxalate) [Example 20, 1-(2(S)-aminobutyryl)-2(R/S)-(5-fluoro)indolinecarboxylic Acid N-butylamide] | 
12 | 156.5 to 158 | CCCCNC(=O)[C@@H]1Cc2cc(O)ccc2N1C(=O)[C@@H](N)CC.O=C(O)C(=O)O [Example 33, 1-(2(S)-aminobutyryl)-5-hydroxyindoline-2(S)-carboxylic Acid Butylamide Oxalate] | pKi ([1]; Ki): 8.18
13 | 117 to 119 | CCCCNC(=O)C1Cc2c(OC)cccc2N1C(=O)[C@@H](N)CC.O=C(O)C(=O)O (mixture of isomers) [Example 27, 1-(2(S)-aminobutyryl)-4-methoxyindoline-2(R/S)-carboxylic Acid Butylamide Oxalate] | 
14 | 115 to 120 | CCNC(=O)[C@@H]1Cc2ccccc2N1C(=O)[C@@H](N)CC [Example 17, 1-(2(S)-aminobutyryl)-2(s)-indolinecarboxylic Acid ethylamide] | 
